Experimental data published in patent US20010047016A1, “Method for treating depression” (priority 2000, published 2001).

Experiments:
[1] = molecular target: T1, MT-3 melatonin sites of hamster brain (Mesocricetus auratus, UniProt A0ABM2YAB8); settings: cited from earlier work
T1 construct: MT-3 melatonin sites of hamster brain; host or cells: hamster brain
T1 sequence (A0ABM2YAB8 1-231): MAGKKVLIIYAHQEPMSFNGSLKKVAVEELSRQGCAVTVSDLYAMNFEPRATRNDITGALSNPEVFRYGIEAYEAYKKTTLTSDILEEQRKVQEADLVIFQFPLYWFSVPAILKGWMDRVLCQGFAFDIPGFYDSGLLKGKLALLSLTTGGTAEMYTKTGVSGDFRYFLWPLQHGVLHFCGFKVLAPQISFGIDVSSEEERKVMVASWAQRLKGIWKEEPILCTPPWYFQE

[2] = test system: other melatonin receptors; settings: cited from earlier work
[3] = test system: C57BL/6J mice; assay: tail suspension test in C57BL/6J mice; type: in vivo
Description: The tail suspension test is a variant of the “behavioral despair” forced swimming test in which immobility is induced by suspending an animal by the tail (Steru et al., 1985). […] C57BL/6 mice ([…] 21-25g) were housed, ten per cage, in light controlled chambers (12 hr. light/12 hr. dark cycle-lights on at 08.00 hr., off at 20.00 hr.) with free access to food and water. Each animal was tested in a chamber made out of white non-transparent plastics. The C57BL/6J mice are suitable animals for such a study since no enzymes of melatonin biosynthesis have been found in the pineal glands of this strain of mice (Ebihara et al., 1986). Therefore, the observed effects could not be attributed to melatonin. The chamber was 17 cm W×25 cm H×15 cm D with a hook (4 cm) attached to the center of the ceiling. There was no front wall to allow for the observation of the mouse behavior. The mouse was hung on a hook by an adhesive tape placed 15 mm from the extremity of its tail. The animal was positioned with its stomach towards the investigator to assure the observation of the total immobility. The distance between the floor of the chamber and the nose of the animal was 10 cm. Immobility was scored as a sum of the time periods during which the animal hung passively and motionless for at least 2 sec. The total period of observation was 6 min. Experiments were conducted between 10.00 hr. and 14.00 hr. in a quiet room. The source of the light (50 W fluorescent bulb) was positioned 2 m above the experimental chamber. Baseline, control experiments were conducted several days before the actual experiments. Only those animals whose cumulative duration of immobility during the 6 min. observation was no less than 100 sec. were selected for further experiments. Three animals were tested simultaneously. Each experimental group was composed of at least nine animals. […] Nifedipine was injected in a dose (5 mg/kg, i.p.) which, by itself, has no effect on the duration of immobility ([…] and Oxenkrug, 1998). […] Results were expressed as mean±S.D. (sec.) and statistically treated by ANOVA and Student t-test.

[4] = test system: mouse; settings: mouse tail suspension test; cited from earlier work

COC(=O)Nc1ccc2[nH]cc(CCNC(C)=O)c2c1 [5-MCA-NAT, 5-methoxy-carbonylamino-N-acetyltryptamine]
affinity for MT-3 melatonin sites [1]: high affinity
affinity or efficacy for other melatonin receptors [2]: low affinity or efficacy
duration of immobility ([3]; 5-MCA-NAT 10 mg/kg i.p., 30 min before testing, 6 min observation): did not affect the duration of immobility
duration of immobility ([3]; 5-MCA-NAT 25 mg/kg i.p., 30 min before testing, 6 min observation): decreased the duration of immobility
duration of immobility ([3]; 5-MCA-NAT 50 mg/kg i.p., 30 min before testing, 6 min observation): decreased the duration of immobility
duration of immobility ([3]; combination: 5-MCA-NAT 10 mg/kg i.p. with nifedipine 5 mg/kg i.p. injected 15 min after): decreased the duration of immobility

COc1ccc2[nH]cc(CCNC(C)=O)c2c1 [Melatonin, N-acetyl-5-methoxytryptamine]
antidepressant-like activity [4]: antidepressant-like activity

COc1cc2nc(N3CCN(C(=O)c4ccco4)CC3)nc(N)c2cc1OC [Prazocin, reference compound]
duration of immobility ([3]; prazocin 0.5 mg/kg alone): did not affect the duration of immobility
effect on decrease of immobility induced by 5-MCA-NAT ([3]; prazocin 0.5 mg/kg injected 15 min before 5-MCA-NAT 50 mg/kg): prevented decrease of immobility
